pIC50: −log10 of the molar value. Where two headings read alike, the source gives them in different places.
Experiments:
[1] = test system: phosphorylation of PI3K downstream protein Akt in MCF7 cells; assay: In vitro test of cells activity: ELISA of Akt phosphorylation in MCF7 cells; assay type: cell-based; conditions: 2 h compound, insulin 10 μg/mL stimulation, pAkt ELISA, read-out: MCF7 Cell IC50
Protocol: 2. In vitro test of cells activity
By the method of ELISA, the inhibition level of the test compound on the phosphorylation of PI3K downstream protein Akt in the signaling pathway was determined in MCF7 cells line to reflect the cells activity of the compound.
Cell culture medium: complete cell culture medium (RPMI 1640+10% serum+1% L-glutamine+1% double antibody)
Serum-free medium (without serum, RPMI 1640+1% L-glutamine+1% double antibody)
The detailed procedures areas follows:
(1) MCF7 cells (ATCC® HTB-22™) were inoculated into a 96-well plate at 100 μL of cell complete medium per well (2.5*10^4 cells per well), and the cells were incubated at 37° C. and 5% CO2 for 24 hours.
(2) The complete cell culture medium was replaced with 100 μL of serum-free medium, and incubated for starvation overnight.
(3) The compound was prepared (The initial concentration of the compound is 1 mM, which was subjected to a three-fold dilution in 10 concentrations, and the compound of each concentration was then diluted 100-fold with serum-free medium). 25 μL of the diluted compound was added to the cells orifice plate.
(4) The cells were incubated at 37° C. and 5% CO2 for 2 hours.
(5) The cells in the well plate were stimulated with 10 μg/mL insulin (Sigma # I9278-5 mL), incubated for 30 minutes, and then centrifuged at 1000 rpm for 5 minutes at room temperature.
(6) 250 μL of 1× balanced salt solution (Invitrogen, #14065-056, 4° C., containing 1 mM/L Na3VO4) was added to each well to wash the cells once.
(7) 100 μL of lysis buffer (trimethylolaminomethane hydrochloride, Invitrogen, #15567-1000 ml) was added to each well, shaken at 4° C. for 60 minutes, and then centrifuged at 4000 rpm for 4 minutes.
(8) The following procedures were carried out according to the instructions of ELISA kit (TGR BioSciences # EKT002).

[2] = biological target: T1, PI3Kβ (Homo sapiens, UniProt P42338); assay: In vitro test of enzyme activity (ADP-Glo lipokinase), PI3K beta; assay type: biochemical; conditions: 40 μM ATP, 50 μM PIP2:3PS, 120 min
T1 construct: purchased Promega V1751
T1 sequence (P42338 whole entry): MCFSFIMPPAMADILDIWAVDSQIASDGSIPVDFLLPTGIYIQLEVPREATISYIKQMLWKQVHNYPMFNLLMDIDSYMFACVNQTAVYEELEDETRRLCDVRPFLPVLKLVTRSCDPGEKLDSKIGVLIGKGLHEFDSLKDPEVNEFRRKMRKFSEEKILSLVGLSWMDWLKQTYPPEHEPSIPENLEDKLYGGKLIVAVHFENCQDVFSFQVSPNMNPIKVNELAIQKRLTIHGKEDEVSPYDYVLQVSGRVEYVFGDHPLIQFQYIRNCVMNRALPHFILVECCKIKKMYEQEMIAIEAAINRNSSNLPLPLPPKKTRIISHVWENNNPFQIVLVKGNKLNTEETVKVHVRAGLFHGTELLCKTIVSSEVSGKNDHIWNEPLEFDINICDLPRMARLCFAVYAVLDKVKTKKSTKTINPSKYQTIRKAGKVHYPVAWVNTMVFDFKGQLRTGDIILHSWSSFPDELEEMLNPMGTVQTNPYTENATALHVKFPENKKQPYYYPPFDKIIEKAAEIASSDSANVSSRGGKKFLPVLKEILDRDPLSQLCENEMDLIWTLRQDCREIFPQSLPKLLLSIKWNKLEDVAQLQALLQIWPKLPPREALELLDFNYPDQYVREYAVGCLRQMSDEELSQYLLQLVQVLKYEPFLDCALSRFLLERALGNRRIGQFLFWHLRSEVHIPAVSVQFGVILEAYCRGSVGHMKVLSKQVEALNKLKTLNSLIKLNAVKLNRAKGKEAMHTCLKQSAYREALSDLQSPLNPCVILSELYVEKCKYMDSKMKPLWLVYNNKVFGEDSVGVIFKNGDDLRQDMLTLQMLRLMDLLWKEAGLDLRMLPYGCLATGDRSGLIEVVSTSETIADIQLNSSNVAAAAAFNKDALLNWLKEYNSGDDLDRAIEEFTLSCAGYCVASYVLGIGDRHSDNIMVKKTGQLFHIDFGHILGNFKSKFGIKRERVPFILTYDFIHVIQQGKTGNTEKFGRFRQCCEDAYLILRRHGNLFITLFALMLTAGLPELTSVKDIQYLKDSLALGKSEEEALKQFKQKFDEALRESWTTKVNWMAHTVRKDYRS
T1 sequence (P27986 whole entry partner): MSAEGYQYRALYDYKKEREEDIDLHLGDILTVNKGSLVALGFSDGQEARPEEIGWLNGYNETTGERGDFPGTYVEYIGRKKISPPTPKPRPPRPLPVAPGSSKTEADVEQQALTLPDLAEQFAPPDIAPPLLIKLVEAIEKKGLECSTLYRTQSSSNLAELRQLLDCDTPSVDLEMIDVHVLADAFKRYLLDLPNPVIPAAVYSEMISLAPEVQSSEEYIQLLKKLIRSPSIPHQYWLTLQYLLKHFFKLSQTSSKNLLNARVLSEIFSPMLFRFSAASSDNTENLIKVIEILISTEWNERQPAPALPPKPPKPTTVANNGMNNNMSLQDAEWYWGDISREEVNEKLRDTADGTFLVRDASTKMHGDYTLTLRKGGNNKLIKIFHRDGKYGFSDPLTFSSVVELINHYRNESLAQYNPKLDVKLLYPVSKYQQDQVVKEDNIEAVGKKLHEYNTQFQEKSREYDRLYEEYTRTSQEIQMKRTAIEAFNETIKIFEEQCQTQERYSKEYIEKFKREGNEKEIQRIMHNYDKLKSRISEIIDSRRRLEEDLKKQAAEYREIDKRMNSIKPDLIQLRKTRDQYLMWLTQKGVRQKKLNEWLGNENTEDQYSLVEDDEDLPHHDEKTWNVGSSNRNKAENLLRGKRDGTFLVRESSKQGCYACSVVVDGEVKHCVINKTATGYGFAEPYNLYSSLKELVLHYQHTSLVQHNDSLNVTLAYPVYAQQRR
Protocol: (§1) 1. In Vitro Test of Enzyme Activity
(§2) The lipokinase reaction was carried out under the conditions of a suitable substrate and ATP, followed by two steps to detect the kinase activity with the ADP-Glo™ kit. The first step was terminating the kinase reaction, wherein the remaining ATP was completely removed and only ADP was left; the second step was adding kinase detection reagents to convert ADP to ATP, accompanied by luciferin/luciferase reaction. Finally, the output value of fluorescence value was converted into kinase activity.
(§3) Experimental materials and equipments:
(§4) 2. Kit: ADP-Glo™ Lipokinase and PIP2:3PS Kit (Promega # V1792)
(§5) The kit contains: 1 mM PIP2:3PS, 10× lipid dilution buffer, 1 M magnesium chloride, 10 mM ATP, 10 mM ADP, ADP-Glo reagent, detection buffer and detection substrate.
(§6) 3. Reaction plate: OptiPlate-384, white and transparent (PerkinElmer #6007299).
(§7) 1. 10× reaction buffer: 500 mM HEPES, pH 7.5, 500 mM NaCl, 9 mM MgCl2; BSA: 10% stock solution, homemade.
(§8) 2. Final test system conditions: 1× reaction system: 50 mM HEPES, 50 mM NaCl, 3 mM MgCl2, 0.01% BSA (freshly prepared on the day of the experiment), 1% DMSO (v/v)+/−compound
(§9) 3. Reaction system: 3 μL mixture of the enzyme and the substrate (1:1)+2 μL ATP/MgCl2 mixture+5 μL ADP-Glo reagent+10 μL detection reagent.
(§10) The detailed experimental procedures are as follows:
(§11) 1. Compound dilution: 50 nL 100×compound/DMSO was transferred to the test well plate with Echo. • For PI3Kα, the compound was diluted three-fold from the highest concentration of 0.111 mM for a total of 10 concentrations. • For PI3Kβ/PI3Kδ/PI3Kγ, the compound was three-fold diluted from the highest concentration of 1.11 mM for a total of 10 concentrations.
(§12) (1) The compound to be tested was prepared and 50 nL of 100 plus compound solution or DMSO was added to the corresponding well plate.
(§13) (2) 3.33 plate reaction buffer was prepared.
(§14) (3) 3.33 solution PIP2:3PS was prepared, PIP2:3PS was thawed for at least 1 minute before use.
(§15) (4) 2.5 mM containing 5.25 mM MgCl2 was prepared.
(§16) (5) 3.33 PI3Kα/PI3Kβ/PI3Kδ/PI3Kγ solution was prepared.
(§17) (6) The lipokinase solution and the PIP2:3PS solution were mixed in a volume ratio of 1:1.
(§18) (7) 3.33: lipokinase buffer and PIP2:3PS solution were mixed in a volume ratio of 1:1.
(§19) (8) 3 μL of buffer solution and PIP2:3PS were added to the first and the second columns of the well plate.
(§20) (9) 3 μL of the mixed solution of the enzyme and PIP2:3PS was added to the wells except the first and the second columns, centrifuged for 10 seconds (1000 rpm) and incubated at 23° C. for 20 minutes.
(§21) (10) 2 μL […] was added and well was shaken.
(§22) (11) The well plate was covered and shaken for about 30 s, then the well plate was incubated at 23° C. for 2 hours.
(§23) (12) 5 μL of ADP-Glo reagent containing 10 mM MgCl2 was added.
(§24) (13) The well plate was centrifuged at 1000 rpm for 10 seconds, and the well plate was then covered, shaken for about 30 seconds, and incubated at 23° C. for 60 minutes.
(§25) (14) 10 μL kinase detection reagent was added.
(§26) (15) The well plate was centrifuged at 1000 rpm for 10 seconds, and then incubated at 23° C. for 60 minutes.
(§27) (16) The fluorescence value was measured on the Envision instrument.

[3] = biological target: T2, PI3Kα (Homo sapiens, UniProt P42336); assay: In vitro test of enzyme activity (ADP-Glo lipokinase), PI3K alpha; assay type: biochemical; conditions: 40 μM ATP, 50 μM PIP2:3PS, 120 min
T2 construct: purchased Millipore 14-602-K
T2 sequence (P42336 whole entry): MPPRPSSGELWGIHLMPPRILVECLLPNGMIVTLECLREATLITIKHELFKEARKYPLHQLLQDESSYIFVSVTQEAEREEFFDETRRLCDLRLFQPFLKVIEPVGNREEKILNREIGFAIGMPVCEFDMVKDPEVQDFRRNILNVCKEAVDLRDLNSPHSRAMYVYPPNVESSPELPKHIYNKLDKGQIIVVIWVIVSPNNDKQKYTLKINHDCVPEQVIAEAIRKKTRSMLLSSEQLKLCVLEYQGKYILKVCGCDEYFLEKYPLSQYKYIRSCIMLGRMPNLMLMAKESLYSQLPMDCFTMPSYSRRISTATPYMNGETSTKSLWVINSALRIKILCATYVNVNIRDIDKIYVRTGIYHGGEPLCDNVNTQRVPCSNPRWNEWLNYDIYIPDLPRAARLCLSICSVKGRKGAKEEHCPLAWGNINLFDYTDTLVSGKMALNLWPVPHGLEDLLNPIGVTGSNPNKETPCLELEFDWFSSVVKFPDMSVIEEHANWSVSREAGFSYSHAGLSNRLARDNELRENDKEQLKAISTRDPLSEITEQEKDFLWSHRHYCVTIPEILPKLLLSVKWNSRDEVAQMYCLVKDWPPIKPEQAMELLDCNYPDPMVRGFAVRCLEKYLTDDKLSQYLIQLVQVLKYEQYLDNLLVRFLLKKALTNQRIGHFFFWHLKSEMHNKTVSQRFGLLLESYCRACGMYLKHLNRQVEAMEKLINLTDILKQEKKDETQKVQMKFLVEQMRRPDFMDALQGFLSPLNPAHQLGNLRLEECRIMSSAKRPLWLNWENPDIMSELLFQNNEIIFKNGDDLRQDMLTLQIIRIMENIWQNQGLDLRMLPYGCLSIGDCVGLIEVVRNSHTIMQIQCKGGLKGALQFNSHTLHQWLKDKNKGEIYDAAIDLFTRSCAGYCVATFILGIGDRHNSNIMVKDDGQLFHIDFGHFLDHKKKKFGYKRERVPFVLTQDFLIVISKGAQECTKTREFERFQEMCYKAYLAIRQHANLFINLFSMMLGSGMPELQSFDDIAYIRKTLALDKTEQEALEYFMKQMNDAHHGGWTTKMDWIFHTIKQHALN
T2 sequence (P27986 whole entry partner): as the sequence (P27986 whole entry partner) above
Protocol: as §1, §2, §3, §4, §5, §6, §7, §8, §9, §10, §11, §12, §13, §14, §15, §16, §17, §18, §19, §20, §21, §22, §23, §24, §25, §26, §27

[4] = biological target: T3, PI3Kγ (Homo sapiens, UniProt P48736); assay: In vitro test of enzyme activity (ADP-Glo lipokinase), PI3K gamma; assay type: biochemical; conditions: 25 μM ATP, 50 μM PIP2:3PS, 120 min
T3 construct: purchased Millipore 14-558-K
T3 sequence (P48736 whole entry): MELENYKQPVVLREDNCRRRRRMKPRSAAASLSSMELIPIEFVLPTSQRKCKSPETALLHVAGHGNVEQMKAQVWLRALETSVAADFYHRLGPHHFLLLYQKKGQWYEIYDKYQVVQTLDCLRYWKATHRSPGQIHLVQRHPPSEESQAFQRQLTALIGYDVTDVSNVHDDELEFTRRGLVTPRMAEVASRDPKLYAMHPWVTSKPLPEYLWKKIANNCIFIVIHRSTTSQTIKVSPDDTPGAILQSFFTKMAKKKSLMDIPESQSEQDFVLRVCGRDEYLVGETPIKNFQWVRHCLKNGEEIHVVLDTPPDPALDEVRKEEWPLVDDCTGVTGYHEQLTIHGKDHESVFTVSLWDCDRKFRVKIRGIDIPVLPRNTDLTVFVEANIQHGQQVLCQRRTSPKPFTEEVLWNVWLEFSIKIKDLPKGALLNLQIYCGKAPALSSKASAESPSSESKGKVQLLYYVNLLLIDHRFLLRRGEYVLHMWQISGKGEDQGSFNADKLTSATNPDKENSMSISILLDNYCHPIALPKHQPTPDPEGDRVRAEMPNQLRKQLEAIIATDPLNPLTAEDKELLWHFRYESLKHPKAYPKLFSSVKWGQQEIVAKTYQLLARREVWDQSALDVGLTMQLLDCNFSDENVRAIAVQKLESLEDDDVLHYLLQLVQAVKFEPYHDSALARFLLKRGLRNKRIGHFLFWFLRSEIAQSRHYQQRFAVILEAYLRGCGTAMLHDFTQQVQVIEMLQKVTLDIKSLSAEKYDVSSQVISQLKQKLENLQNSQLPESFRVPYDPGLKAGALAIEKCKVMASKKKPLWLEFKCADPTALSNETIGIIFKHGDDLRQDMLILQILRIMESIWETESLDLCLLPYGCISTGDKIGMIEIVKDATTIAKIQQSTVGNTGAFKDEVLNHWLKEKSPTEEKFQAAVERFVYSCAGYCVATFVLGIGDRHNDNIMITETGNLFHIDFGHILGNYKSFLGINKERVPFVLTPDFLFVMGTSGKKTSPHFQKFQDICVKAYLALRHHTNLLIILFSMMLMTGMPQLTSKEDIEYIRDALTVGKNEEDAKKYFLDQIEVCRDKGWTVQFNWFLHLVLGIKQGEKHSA
Protocol: as §1, §2, §3, §4, §5, §6, §7, §8, §9, §10, §11, §12, §13, §14, §15, §16, §17, §18, §19, §20, §21, §22, §23, §24, §25, §26, §27

[5] = biological target: T4, PI3Kδ (Homo sapiens, UniProt O00329); assay: In vitro test of enzyme activity (ADP-Glo lipokinase), PI3K delta; assay type: biochemical; conditions: 40 μM ATP, 50 μM PIP2:3PS, 120 min
T4 construct: purchased Millipore 14-604-K
T4 sequence (O00329 whole entry): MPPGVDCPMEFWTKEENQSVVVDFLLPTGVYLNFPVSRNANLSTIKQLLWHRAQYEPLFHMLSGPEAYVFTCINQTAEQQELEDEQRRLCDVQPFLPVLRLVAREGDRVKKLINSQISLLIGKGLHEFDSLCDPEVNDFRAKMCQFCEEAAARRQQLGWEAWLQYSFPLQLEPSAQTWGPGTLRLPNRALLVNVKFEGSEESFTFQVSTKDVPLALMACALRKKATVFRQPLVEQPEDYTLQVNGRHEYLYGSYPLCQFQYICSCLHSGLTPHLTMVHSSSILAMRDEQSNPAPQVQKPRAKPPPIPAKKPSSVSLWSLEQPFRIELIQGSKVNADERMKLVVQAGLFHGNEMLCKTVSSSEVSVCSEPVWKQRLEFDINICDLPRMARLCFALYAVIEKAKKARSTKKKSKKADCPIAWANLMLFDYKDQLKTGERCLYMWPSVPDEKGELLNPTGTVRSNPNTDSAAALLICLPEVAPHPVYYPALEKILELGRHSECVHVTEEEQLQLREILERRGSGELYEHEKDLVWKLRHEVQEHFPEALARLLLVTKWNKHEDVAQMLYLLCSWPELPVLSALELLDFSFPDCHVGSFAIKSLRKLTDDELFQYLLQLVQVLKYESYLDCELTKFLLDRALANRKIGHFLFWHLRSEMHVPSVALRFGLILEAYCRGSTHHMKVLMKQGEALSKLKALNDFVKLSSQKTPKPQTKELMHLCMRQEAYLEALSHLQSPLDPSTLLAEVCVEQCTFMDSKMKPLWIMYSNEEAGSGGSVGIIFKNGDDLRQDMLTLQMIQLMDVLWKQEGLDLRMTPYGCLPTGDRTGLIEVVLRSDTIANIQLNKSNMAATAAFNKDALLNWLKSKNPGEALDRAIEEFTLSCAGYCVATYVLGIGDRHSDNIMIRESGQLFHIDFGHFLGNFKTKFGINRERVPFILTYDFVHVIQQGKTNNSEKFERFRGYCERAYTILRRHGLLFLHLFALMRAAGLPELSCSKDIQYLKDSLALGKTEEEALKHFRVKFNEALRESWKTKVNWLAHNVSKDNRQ
T4 sequence (P27986 whole entry partner): as the sequence (P27986 whole entry partner) above
Protocol: as §1, §2, §3, §4, §5, §6, §7, §8, §9, §10, §11, §12, §13, §14, §15, §16, §17, §18, §19, §20, §21, §22, §23, §24, §25, §26, §27

Row | Compound | pIC50 [1] | pIC50 [2] | pIC50 [3] | pIC50 [4] | pIC50 [5] | pIC50 ([1]; Homo sapiens, MCF7, 2 h)
1 | COc1ncc(-c2ccc3ncn(CC(C)C(=O)O)c(=O)c3c2)cc1NS(=O)(=O)c1ccc(F)cc1Cl (single isomer, unassigned) [R002, reference compound] | 6.20 | 5.98 | 7.87 | 7.69 | 6.91 | –
2 | COc1ncc(-c2ccc3ncn(CC(C)C(=O)O)c(=O)c3c2)cc1NS(=O)(=O)c1ccc(F)cc1Cl (single isomer, unassigned) [R003, reference compound] | – | 6.37 | 8.15 | 8.28 | 7.07 | 6.50
3 | CNC(=O)C(C)Cn1cnc2ccc(-c3cnc(C)c(NS(=O)(=O)c4sc(C)nc4C)c3)cc2c1=O (single isomer, unassigned) [WX035] | – | 6.80 | 8.80 | 7.71 | 8.14 | –
4 | CCC(CC)NC(=O)C(C)Cn1cnc2ccc(-c3cnc(OC)c(NS(=O)(=O)c4ccc(F)cc4Cl)c3)cc2c1=O (single isomer, unassigned) [WX056] | – | 5.29 | 7.71 | 6.81 | 7.21 | –
5 | CCC(CC)NC(=O)C(C)Cn1cnc2ccc(-c3cnc(OC)c(NS(=O)(=O)c4ccc(F)cc4Cl)c3)cc2c1=O (single isomer, unassigned) [WX057] | – | 6.02 | 7.24 | 7.32 | 7.55 | –
6 | COc1ncc(-c2ccc3ncn(CC(C)C(=O)NCC(F)(F)F)c(=O)c3c2)cc1NS(=O)(=O)c1ccc(F)cc1Cl (single isomer, unassigned) [WX059] | – | 6.41 | 7.95 | 7.85 | 7.88 | –
7 | CNC(=O)C(C)Cn1cnc2ccc(-c3cnc(CO)c(NS(=O)(=O)c4ccc(F)cc4Cl)c3)cc2c1=O (single isomer, unassigned) [WX062] | – | < 5.00 | 7.52 | 6.43 | 6.27 | –
8 | CNC(=O)C(C)Cn1cnc2ccc(-c3cnc(CO)c(NS(=O)(=O)c4ccc(F)cc4Cl)c3)cc2c1=O (single isomer, unassigned) [WX063] | – | 5.14 | 7.15 | 6.50 | 6.47 | –
9 | COCCNC(=O)C(C)Cn1cnc2ccc(-c3cnc(OC)c(NS(=O)(=O)c4ccc(F)cc4Cl)c3)cc2c1=O (single isomer, unassigned) [WX064] | – | 6.44 | 8.17 | 7.79 | 8.04 | –
10 | COc1ncc(-c2ccc3ncn(CC(C)C(=O)NCCF)c(=O)c3c2)cc1NS(=O)(=O)c1ccc(F)cc1Cl (single isomer, unassigned) [WX066] | – | 6.74 | 8.28 | 8.03 | 8.11 | –
11 | CNC(=O)C(C)Cn1cnc2ccc(-c3cnc(OC)c(NS(=O)(=O)c4cc(Cl)c(F)cc4F)c3)cc2c1=O (single isomer, unassigned) [WX095] | – | 6.41 | 8.32 | 7.17 | 7.53 | –
12 | CNC(=O)C(C)Cn1cnc2c(F)cc(-c3cnc(OC)c(NS(=O)(=O)c4ccc(F)cc4Cl)c3)cc2c1=O (single isomer, unassigned) [WX106] | 6.34 | 6.13 | 7.71 | – | – | –
13 | CCC(Cn1cnc2ccc(-c3cnc(OC)c(NS(=O)(=O)c4ccc(F)cc4Cl)c3)cc2c1=O)C(=O)NC (single isomer, unassigned) [WX107] | 6.52 | 5.73 | 7.74 | – | – | –
14 | CCC(Cn1cnc2ccc(-c3cnc(OC)c(NS(=O)(=O)c4ccc(F)cc4Cl)c3)cc2c1=O)C(=O)NC (single isomer, unassigned) [WX108] | 7.02 | 6.38 | 7.86 | – | – | –
15 | CNC(=O)[C@@H]1CCC[C@H]1Cn1cnc2ccc(-c3cnc(OC)c(NS(=O)(=O)c4ccc(F)cc4Cl)c3)cc2c1=O (single isomer, unassigned) [WX196] | 6.40 | 5.75 | 7.39 | – | – | –
16 | Cc1ncc(-c2ccc3ncn(CCN(C)C)c(=O)c3c2)cc1NS(=O)(=O)c1ccc(F)cc1Cl [R010, reference compound] | – | 6.46 | 7.46 | 6.38 | 7.34 | –
17 | CNC(=O)CCCn1cnc2ccc(-c3cnc(C)c(NS(=O)(=O)c4ccc(F)cc4Cl)c3)cc2c1=O [WX002] | – | 6.67 | 8.55 | 7.47 | 7.91 | –
18 | Cc1ncc(-c2ccc3ncn(CCCC(=O)N4CCCC4)c(=O)c3c2)cc1NS(=O)(=O)c1ccc(F)cc1Cl [WX005] | – | 6.61 | 8.36 | 7.30 | 8.13 | –
19 | Cc1nc(C)c(S(=O)(=O)Nc2cc(-c3ccc4ncn(CCCC(=O)N5CCCC5)c(=O)c4c3)cnc2C)s1 [WX007] | – | 6.80 | 8.83 | 7.54 | 8.73 | –
20 | CCC(Cn1cnc2ccc(-c3cnc(OC)c(NS(=O)(=O)c4ccc(F)cc4Cl)c3)cc2c1=O)C(N)=O (stereo not shown) [WX021] | – | 6.88 | 8.16 | – | – | 7.28
21 | COc1ncc(-c2ccc3ncn(CC(C(N)=O)C(C)C)c(=O)c3c2)cc1NS(=O)(=O)c1ccc(F)cc1Cl (stereo not shown) [WX022] | – | 6.08 | 7.59 | – | – | 6.90
22 | COc1ncc(-c2ccc3ncn(CC(F)(F)C(N)=O)c(=O)c3c2)cc1NS(=O)(=O)c1ccc(F)cc1Cl [WX041] | – | 6.91 | 8.58 | 8.08 | 8.15 | –
23 | CNC(=O)C(C)Cn1cnc2ccc(-c3cnc(OC(F)(F)F)c(NS(=O)(=O)c4ccc(F)cc4Cl)c3)cc2c1=O (stereo not shown) [WX127] | – | 5.66 | 7.64 | – | – | < 6.00
24 | CNC(=O)C1(Cn2cnc3ccc(-c4cnc(OC)c(NS(=O)(=O)c5ccc(F)cc5Cl)c4)cc3c2=O)CC1 [WX202] | – | 7.05 | 8.17 | 7.36 | 8.36 | –

Reference: patent US20200317660A1, “Quinazolinone Compound and Application Thereof” (LUOXIN PHARMACEUTICAL (SHANGHAI) CO., LTD., priority 2017, published 2020)
